From patent US12415834B2, “GhR-binding peptide and composition comprising same” (priority 2021, dated 2025)
Starred links: 1 amine or outer side, 2 acyl side, 3 side chain; linkers in the order of their positions; H or OH if unused. Positions of bridges follow the written chain, without caps; N, C: chain ends. Non-standard residues stand in square brackets, D forms with d. Residues, ends and D or L forms follow the SMILES beside them. Groups on a side chain read outwards from the residue. *: point of attachment. X3 = NC(=O)[C@H](CCCCN*)NC(=O)CC[C@H](NC(=O)CC[C@H](NC(=O)CCCCCCCCCCCCCCC(=O)O)C(=O)O)C(=O)O; X10 = NC(=O)[C@H](CCCCN*)NC(=O)CC[C@H](NC(=O)CC[C@H](NC(=O)CCCc1ccc(I)cc1)C(=O)O)C(=O)O; Trp(1-CH2CO) = O=C([C@H](Cc1cn(CC(=O)[*:3])c2ccccc12)N[*:1])[*:2]; Trp(5-OH) = N[C@@H](Cc1c[nH]c2ccc(O)cc12)C(=O)O; Phe(4-COOH) = N[C@@H](Cc1ccc(C(=O)O)cc1)C(=O)O; Piperazinyl(4-CH2COOH) = O=C(O)CN1CCN(*)CC1; X7 = O=C(O)CN1CCC(N[*:1])(C(=O)[*:2])CC1; C16 diacid = O=C(O)CCCCCCCCCCCCCCC(=O)*; γGlu = O=C(O)[C@H](CCC(=O)[*:2])N[*:1]; NMeK = CN[C@@H](CCCCN)C(=O)O; Aib = CC(C)(N)C(=O)O; CO = O=C([*:1])[*:2]

Molecular target: T1, Recombinant human GhR-Fc protein (Homo sapiens, UniProt P10912)
T1 construct: purchased R&D Systems
T1 sequence (P10912 with tags, fused parts or gaps limits assumed): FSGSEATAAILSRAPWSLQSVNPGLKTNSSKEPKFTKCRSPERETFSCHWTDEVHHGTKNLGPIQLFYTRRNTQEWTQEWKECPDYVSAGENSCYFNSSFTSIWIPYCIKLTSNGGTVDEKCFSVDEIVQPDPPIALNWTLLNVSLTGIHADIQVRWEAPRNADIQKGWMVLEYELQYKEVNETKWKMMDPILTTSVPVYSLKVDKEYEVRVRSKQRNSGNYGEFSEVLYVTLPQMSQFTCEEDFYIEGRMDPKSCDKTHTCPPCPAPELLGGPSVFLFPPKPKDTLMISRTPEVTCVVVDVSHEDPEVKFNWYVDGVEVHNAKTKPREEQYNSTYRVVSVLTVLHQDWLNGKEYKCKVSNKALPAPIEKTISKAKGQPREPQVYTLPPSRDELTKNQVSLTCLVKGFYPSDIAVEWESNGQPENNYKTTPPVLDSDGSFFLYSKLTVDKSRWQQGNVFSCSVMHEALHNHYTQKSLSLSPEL
Assay: SPR binding assay (Biacore T200, single-cycle kinetics) of peptides against immobilized human GhR-Fc
Conditions: SPR, hGhR; Table 1 bicyclic peptides; KD calculated from ka and kd; read-out: KD
Method: SPR assay was performed using Biacore T200 (cytiva: Former GE Healthcare). After the equilibration of Series S Sensor Chip CM5 (produced by cytiva: Former GE Healthcare) with Running Buffer (HBS-EP with 1% (v/v) DMSO), an EDC/NHS mixture was injected at a flow rate of 10 μL/min for 7 minutes to thereby activate the functional groups on sensor chip. Recombinant human GhR-Fc protein (R&D Systems) in 10 mM Acetate (pH 4.0) was injected immobilized to at a flow rate of 5 μL/min. It took 7 minutes to immobilize the GhR on the substrate surfaces of the sensor chip. Then Ethanolamine was injected at a flow rate of 10 μL/min for 7 minutes. 1M Ethanolamine (aq.) was injected at a flow rate of 10 μL/min for 420 seconds for capping.
Using these Peptide Samples, kinetics of peptides against human GhR-Fc protein were measured. The method adopted for sample measurement was a single-cycle kinetics method. The analysis was conducted using the evaluation software provided with Biacore T200. A DMSO correction curve obtained by solvent correction measurements was applied for the analysis. Kinetics fitting was done on the difference data obtained by subtracting the baseline data from sample measurement data. KD values were calculated based on the association rate constant (ka) and dissociation rate constant (kd). […]

| Compound | Kd |
| --- | --- |
| CC(C)[C@@H]1NC(=O)[C@H](C(C)C)NC(=O)[C@@H]2CCCCNC(=O)Cn3cc(c4ccccc43)C[C@H](NC(=O)[C@H](CC(N)=O)NC(=O)[C@H](CO)NC1=O)C(=O)N[C@@H](Cc1ccc(O)cc1)C(=O)N[C@@H](CCCCN)C(=O)N[C@@H](Cc1c[nH]c3ccc(O)cc13)C(=O)NC1(CCN(CC(=O)O)CC1)C(=O)N[C@@H](C(C)C)C(=O)N[C@H](C(=O)NCCCC[C@H](NC(=O)CC[C@H](NC(=O)CC[C@H](NC(=O)CCCCCCCCCCCCCCC(=O)O)C(=O)O)C(=O)O)C(N)=O)CSCC(=O)N[C@@H](Cc1ccc(C(=O)O)cc1)C(=O)N2C [Compound 18] ({CH2CO}-[Phe(4-COOH)][NMeK]VVSN[Trp(1-CH2CO)]YK[Trp(5-OH)][X7]VC-X3; lactam 2-7; thioether N-13) | 2.4 nM |
| CC(C)[C@@H]1NC(=O)[C@H](C(C)C)NC(=O)[C@@H]2CCCCNC(=O)Cn3cc(c4ccccc43)C[C@H](NC(=O)[C@H](CC(N)=O)NC(=O)[C@H](CO)NC1=O)C(=O)N[C@@H](Cc1ccc(O)cc1)C(=O)N[C@@H](CCCCN)C(=O)N[C@@H](Cc1c[nH]c3ccc(O)cc13)C(=O)NC(C)(C)C(=O)N[C@@H](C(C)C)C(=O)N[C@H](C(=O)NCCCC[C@H](NC(=O)CC[C@H](NC(=O)CC[C@H](NC(=O)CCCCCCCCCCCCCCC(=O)O)C(=O)O)C(=O)O)C(N)=O)CSCC(=O)N[C@@H](Cc1ccc(C(=O)O)cc1)C(=O)N2C [Compound 19] ({CH2CO}-[Phe(4-COOH)][NMeK]VVSN[Trp(1-CH2CO)]YK[Trp(5-OH)][Aib]VC-X3; lactam 2-7; thioether N-13) | 1.93 nM |
| CC(C)[C@@H]1NC(=O)[C@H](C(C)C)NC(=O)[C@@H]2CCCCNC(=O)Cn3cc(c4ccccc43)C[C@H](NC(=O)[C@H](CC(N)=O)NC(=O)[C@H](CO)NC1=O)C(=O)N[C@@H](Cc1ccc(O)cc1)C(=O)N[C@@H](CCCCN)C(=O)N[C@@H](Cc1c[nH]c3ccc(O)cc13)C(=O)NC(C)(C)C(=O)N[C@@H](C(C)C)C(=O)N[C@H](C(=O)NCC(=O)N1CCC[C@H]1C(=O)N[C@H](CO)C(=O)N[C@H](CO)C(=O)N[C@H](CO)C(=O)N[C@@H](CCCCNC(=O)CC[C@H](NC(=O)CC[C@H](NC(=O)CCCCCCCCCCCCCCC(=O)O)C(=O)O)C(=O)O)C(N)=O)CSCC(=O)N[C@@H](Cc1ccc(C(=O)O)cc1)C(=O)N2C [Compound 20] ({CH2CO}-[Phe(4-COOH)][NMeK]VVSN[Trp(1-CH2CO)]YK[Trp(5-OH)][Aib]VCGP[dS][dS][dS]K([γGlu-γGlu-C16 diacid])-NH2; lactam 2-7; thioether N-13) | 1.25 nM |
| CC(C)[C@@H]1NC(=O)[C@H](C(C)C)NC(=O)[C@@H]2CCCCNC(=O)Cn3cc(c4ccccc43)C[C@H](NC(=O)[C@H](CC(N)=O)NC(=O)[C@H](CO)NC1=O)C(=O)N[C@@H](Cc1ccc(O)cc1)C(=O)N[C@@H](CCCCN)C(=O)N[C@@H](Cc1c[nH]c3ccc(O)cc13)C(=O)NC(C)(C)C(=O)N[C@@H](C(C)C)C(=O)N[C@H](C(=O)NCCCC[C@H](NC(=O)CC[C@H](NC(=O)CC[C@H](NC(=O)CCCc1ccc(I)cc1)C(=O)O)C(=O)O)C(N)=O)CSCC(=O)N[C@@H](Cc1ccc(C(=O)O)cc1)C(=O)N2C [Compound 21] ({CH2CO}-[Phe(4-COOH)][NMeK]VVSN[Trp(1-CH2CO)]YK[Trp(5-OH)][Aib]VC-X10; lactam 2-7; thioether N-13) | 1.07 nM |
| CC(C)[C@@H]1NC(=O)[C@H](C(C)C)NC(=O)[C@@H]2CCCCNC(=O)Cn3cc(c4ccccc43)C[C@H](NC(=O)[C@H](CC(N)=O)NC(=O)[C@H](CO)NC1=O)C(=O)N[C@@H](Cc1ccc(C(=O)O)cc1)C(=O)N[C@@H](CCCCN)C(=O)N[C@@H](Cc1c[nH]c3ccc(O)cc13)C(=O)NC1(CCN(CC(=O)O)CC1)C(=O)N[C@@H](C(C)C)C(=O)N[C@H](C(=O)NCCCC[C@H](NC(=O)CC[C@H](NC(=O)CC[C@H](NC(=O)CCCCCCCCCCCCCCC(=O)O)C(=O)O)C(=O)O)C(N)=O)CSCC(=O)N[C@@H](Cc1ccc(O)cc1)C(=O)N2C [Compound 23] ({CH2CO}-Y[NMeK]VVSN[Trp(1-CH2CO)][Phe(4-COOH)]K[Trp(5-OH)][X7]VC-X3; lactam 2-7; thioether N-13) | 2.29 nM |
| CC(C)[C@@H]1NC(=O)[C@H](C(C)C)NC(=O)[C@@H]2CCCCNC(=O)Cn3cc(c4ccccc43)C[C@H](NC(=O)[C@H](CC(N)=O)NC(=O)[C@H](CO)NC1=O)C(=O)N[C@@H](Cc1ccc(C(=O)O)cc1)C(=O)N[C@@H](CCCCN)C(=O)N[C@@H](Cc1c[nH]c3ccc(O)cc13)C(=O)NC(C)(C)C(=O)N[C@@H](C(C)C)C(=O)N[C@H](C(=O)NCC(=O)N1CCC[C@H]1C(=O)N[C@H](CO)C(=O)N[C@H](CO)C(=O)N[C@H](CO)C(=O)N[C@@H](CCCCNC(=O)CC[C@H](NC(=O)CC[C@H](NC(=O)CCCCCCCCCCCCCCC(=O)O)C(=O)O)C(=O)O)C(N)=O)CSCC(=O)N[C@@H](Cc1ccc(O)cc1)C(=O)N2C [Compound 25] ({CH2CO}-Y[NMeK]VVSN[Trp(1-CH2CO)][Phe(4-COOH)]K[Trp(5-OH)][Aib]VCGP[dS][dS][dS]K([γGlu-γGlu-C16 diacid])-NH2; lactam 2-7; thioether N-13) | 2.23 nM |
| CC(C)[C@@H]1NC(=O)[C@H](C(C)C)NC(=O)[C@@H]2CCCCNC(=O)Cn3cc(c4ccccc43)C[C@H](NC(=O)[C@H](CC(N)=O)NC(=O)[C@H](CO)NC1=O)C(=O)N[C@@H](Cc1ccc(C(=O)O)cc1)C(=O)N[C@@H](CCCCN)C(=O)N[C@@H](Cc1c[nH]c3ccc(O)cc13)C(=O)NC(C)(C)C(=O)N[C@@H](C(C)C)C(=O)N[C@H](C(=O)NCCCC[C@H](NC(=O)CC[C@H](NC(=O)CC[C@H](NC(=O)CCCc1ccc(I)cc1)C(=O)O)C(=O)O)C(N)=O)CSCC(=O)N[C@@H](Cc1ccc(O)cc1)C(=O)N2C [Compound 26] ({CH2CO}-Y[NMeK]VVSN[Trp(1-CH2CO)][Phe(4-COOH)]K[Trp(5-OH)][Aib]VC-X10; lactam 2-7; thioether N-13) | 1.59 nM |
| CC(C)[C@@H]1NC(=O)[C@H](C(C)C)NC(=O)[C@@H]2CCCCNC(=O)Cn3cc(c4ccccc43)C[C@H](NC(=O)[C@H](CC(N)=O)NC(=O)[C@H](CO)NC1=O)C(=O)N[C@@H](Cc1ccc(O)cc1)C(=O)N[C@@H](CCCCNC(=O)N1CCN(CC(=O)O)CC1)C(=O)N[C@@H](Cc1c[nH]c3ccc(O)cc13)C(=O)NC(C)(C)C(=O)N[C@@H](C(C)C)C(=O)N[C@H](C(=O)NCCCC[C@H](NC(=O)CC[C@H](NC(=O)CC[C@H](NC(=O)CCCCCCCCCCCCCCC(=O)O)C(=O)O)C(=O)O)C(N)=O)CSCC(=O)N[C@@H](Cc1ccc(O)cc1)C(=O)N2C [Compound 27] ({CH2CO}-Y[NMeK]VVSN[Trp(1-CH2CO)]YK([CO-Piperazinyl(4-CH2COOH)])[Trp(5-OH)][Aib]VC-X3; lactam 2-7; thioether N-13) | 1.79 nM |
| CC(C)[C@@H]1NC(=O)[C@H](C(C)C)NC(=O)[C@@H]2CCCCNC(=O)Cn3cc(c4ccccc43)C[C@H](NC(=O)[C@H](CC(N)=O)NC(=O)[C@H](CO)NC1=O)C(=O)N[C@@H](Cc1ccc(O)cc1)C(=O)N[C@@H](CCCCN)C(=O)N[C@@H](Cc1c[nH]c3ccc(O)cc13)C(=O)NC1(CCN(CC(=O)O)CC1)C(=O)N[C@@H](C(C)C)C(=O)N[C@H](C(=O)NCCCC[C@H](NC(=O)CC[C@H](NC(=O)CC[C@H](NC(=O)CCCCCCCCCCCCCCC(=O)O)C(=O)O)C(=O)O)C(N)=O)CSCC(=O)N[C@@H](Cc1ccc(O)cc1)C(=O)N2C [Compound 29] ({CH2CO}-Y[NMeK]VVSN[Trp(1-CH2CO)]YK[Trp(5-OH)][X7]VC-X3; lactam 2-7; thioether N-13) | 1.57 nM |
